{
  "source": "paper PMC11587516",
  "about": "(ACS Chemical Neuroscience, 2024)",
  "type_in_all_cases": "cell-based",
  "key": {"hBGT1": {"target": "T1, hBGT1 (Homo sapiens, UniProt P48065)", "T1 construct": "expressed in transfected cells", "T1 sequence (P48065 1-614)": "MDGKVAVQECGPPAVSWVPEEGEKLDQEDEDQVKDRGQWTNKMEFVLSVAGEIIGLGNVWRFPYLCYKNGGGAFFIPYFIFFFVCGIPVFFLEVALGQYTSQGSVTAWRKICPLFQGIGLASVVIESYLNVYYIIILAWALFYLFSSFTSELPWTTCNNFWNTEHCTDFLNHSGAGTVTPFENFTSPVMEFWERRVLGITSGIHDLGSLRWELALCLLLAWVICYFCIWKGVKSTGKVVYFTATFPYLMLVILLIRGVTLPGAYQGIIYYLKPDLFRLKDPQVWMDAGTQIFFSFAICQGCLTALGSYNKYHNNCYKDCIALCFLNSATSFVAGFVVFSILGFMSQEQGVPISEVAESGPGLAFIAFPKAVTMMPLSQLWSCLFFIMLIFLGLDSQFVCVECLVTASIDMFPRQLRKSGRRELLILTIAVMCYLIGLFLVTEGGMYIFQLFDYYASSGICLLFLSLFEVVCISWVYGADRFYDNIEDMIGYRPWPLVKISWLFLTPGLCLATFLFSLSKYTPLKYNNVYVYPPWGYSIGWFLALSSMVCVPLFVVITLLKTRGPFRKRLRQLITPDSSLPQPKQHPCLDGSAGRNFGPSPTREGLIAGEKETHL", "test": "[3H]GABA uptake assay, CHO cells stably expressing hBGT1", "protocol": "All selected compounds were tested for their ability to inhibit human BGT1 (hBGT1) function.\nThe CHO cells were placed in 96-well plates (approximately 50,000 cells/well) for about 24 h before the experiment. […] After incubation, cells were washed 3 times with 100 μL/well ice-cold assay buffer, 150 μL/well MicroScint20 (PerkinElmer) was subsequently added before the plate was shaken for at least 1 h. The radioactivity of each well of the plate was measured on a TopCount NXT scintillation counter. […] Data presented are the pooled data of at least three independent experiments with three technical replicates if not stated otherwise in figure legends. Concentration–response curves were fitted by nonlinear regression to the sigmoidal concentration–response model with GraphPad Prism v 9.0."}, "[1]": {"tested_on": "normal human astrocytes (NHA)", "test": "Confocal imaging of astrocyte morphology after incubation in PBS (non-GABA conditions)", "conditions": "500 μM in PBS, non-GABA environment; 72 h", "protocol": "To this end, we tested whether blocking the transport of GABA under experimental non-GABA extracellular conditions may impair the homeostasis of these cells. […] Afterward, the cells were stained to visualize actin filaments using confocal microscopy. […] Nevertheless, further kinetic studies are necessary to verify this hypothesis.\nNHA was grown on a coverslip in a 35 mm culture dish. After treatment, the cells were fixed (4% paraformaldehyde) and permeabilized (0.1% Triton X-100). Then, the samples were stained with Phalloidin-Atto 565 (Sigma-Aldrich, Inc.) according to the manufacturer’s protocol. Laser confocal microscope Nikon Eclipse Ti-E A1R-Si and Nikon NIS Elements AR software were used for cell imaging."}, "hGAT3": {"target": "T2, hGAT3 (Homo sapiens, UniProt P48066)", "T2 construct": "expressed in transfected cells", "T2 sequence (P48066 1-632)": "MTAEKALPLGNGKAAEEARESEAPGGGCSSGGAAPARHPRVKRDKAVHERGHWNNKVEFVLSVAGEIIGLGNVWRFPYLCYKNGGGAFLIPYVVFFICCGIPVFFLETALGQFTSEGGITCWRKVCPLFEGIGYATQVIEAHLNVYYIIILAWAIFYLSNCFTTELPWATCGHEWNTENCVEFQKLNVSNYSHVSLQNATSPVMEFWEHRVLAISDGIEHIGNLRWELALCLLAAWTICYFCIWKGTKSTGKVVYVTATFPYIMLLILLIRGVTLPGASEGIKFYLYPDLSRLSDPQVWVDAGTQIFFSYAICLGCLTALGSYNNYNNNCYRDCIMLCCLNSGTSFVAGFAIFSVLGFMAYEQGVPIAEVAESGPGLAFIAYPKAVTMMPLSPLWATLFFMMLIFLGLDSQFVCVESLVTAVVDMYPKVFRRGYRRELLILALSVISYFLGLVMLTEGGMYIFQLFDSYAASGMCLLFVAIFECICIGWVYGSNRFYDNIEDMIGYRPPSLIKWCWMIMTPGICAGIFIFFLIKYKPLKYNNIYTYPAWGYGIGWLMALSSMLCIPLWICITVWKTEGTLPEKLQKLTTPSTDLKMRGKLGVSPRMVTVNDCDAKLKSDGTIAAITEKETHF", "test": "[3H]GABA uptake assay, CHO cells stably expressing hGAT3"}},
  "data": [
    {"smiles": "NC12CC(C(=O)O)(C1)C2", "note": "[Compound 9]", "values": [
      {"measurement": "IC50", "setting": "hBGT1", "value": 13.9, "unit": "µM"},
      {"measurement": "inhibition at 100 µM", "setting": "hBGT1; CHO, read-out: inhibition of [3H]GABA uptake", "value": 81, "unit": "%"},
      {"measurement": "preference for hBGT1 over hGAT3", "setting": "hBGT1; ratio of IC50 values", "value": "over 4 fold"},
      {"measurement": "astrocyte morphology (actin staining)", "setting": "[1]", "value": "cell shrinkage and a loss of cell-to-cell contact"},
      {"measurement": "IC50", "setting": "hGAT3", "value": 58.3, "unit": "µM"},
      {"measurement": "inhibition at 100 µM", "setting": "hGAT3; CHO, read-out: inhibition of GABA uptake", "value": "~73", "unit": "%"}
    ]}
  ]
}
